These results are taken from patent US10538555B2, “Macrocyclic inhibitors of the PD-1/PD-L1 and CD80(B7-1)/PD-L1 protein/protein interactions” (BRISTOL-MYERS SQUIBB COMPANY, priority 2014, dated 2020).

pIC50: −log10 of the molar value. *1 amine or outer side, *2 acyl side, *3 side chain or, on linkers, in order; H or OH if unused. Where a SMILES comes first, the peptide text is derived from it. Bridges are numbered along the chain shown (N, C = ends). [ ]: non-standard residue; d: D form. ξ: configuration not given here. Trp(1-CH2COOH) = N[C@@H](Cc1cn(CC(=O)O)c2ccccc12)C(=O)O; Phe(3,4,5-F3) = N[C@@H](Cc1cc(F)c(F)c(F)c1)C(=O)O; Phe(3,4-F2) = N[C@@H](Cc1ccc(F)c(F)c1)C(=O)O; NMeW = CN[C@@H](Cc1c[nH]c2ccccc12)C(=O)O; Phe(4-F) = N[C@@H](Cc1ccc(F)cc1)C(=O)O; d(cisHyp) = O=C(O)[C@H]1C[C@@H](O)CN1; Hyp = O=C(O)[C@@H]1C[C@@H](O)CN1; NMeF = CN[C@@H](Cc1ccccc1)C(=O)O; X1 = O=C([C@H]1COCCN1[*:1])[*:2]; dNMeF = CN[C@H](Cc1ccccc1)C(=O)O; dHyp = O=C(O)[C@H]1C[C@H](O)CN1; NMehSer = CN[C@@H](CCO)C(=O)O; NMeNle = CCCC[C@H](NC)C(=O)O; hSer = N[C@@H](CCO)C(=O)O; NMeA = CN[C@@H](C)C(=O)O; Orn = NCCC[C@H](N)C(=O)O; dNMeA = CN[C@H](C)C(=O)O; Dab = NCC[C@H](N)C(=O)O; Dap = NC[C@H](N)C(=O)O; ξP = O=C(O)C1CCCN1; ξC = NC(CS)C(=O)O

The target in the first assay is T1, Human PD-L1/PD-1 (Homo sapiens, UniProt Q9NZQ7).
T1 construct: TVMV protease cleavage site (C); made in house; host or cells: HEK293T cells
T1 sequence (Q9NZQ7 with tags, fused parts or gaps): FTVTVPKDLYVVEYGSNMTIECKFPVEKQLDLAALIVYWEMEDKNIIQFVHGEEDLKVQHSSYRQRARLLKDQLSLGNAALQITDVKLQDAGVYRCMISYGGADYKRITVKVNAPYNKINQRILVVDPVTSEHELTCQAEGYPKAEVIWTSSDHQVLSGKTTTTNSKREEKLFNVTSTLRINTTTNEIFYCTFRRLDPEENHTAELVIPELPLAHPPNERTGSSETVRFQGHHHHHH
Description: HTRF Human PD-L1/PD-1 binding assay (PD-1-Ig/PD-L1-His). The note with it: PD-L1-His 10 nM, PD-1-Ig 20 nM; class symbol; read-out: HTRF Human PD-L1/PD-1 Binding Assay IC50 Range. Summed up: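 Compound preincubated 15 min with PD-L1-His (10 nM final), then PD-1-Ig (20 nM final) added for 15 min in dPBS with 0.1% BSA and 0.05% Tween-20. Detection by Eu-cryptate anti-Ig (1 nM) and APC anti-His (20 nM) after 30 min; 665/620 nm HTRF ratio. Proteins expressed in HEK293T.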
On the technique in general: Time-resolved FRET reads energy transfer from a long-lived donor to a nearby acceptor.
With `CCCC[C@H]1C(=O)N[C@@H](CC(N)=O)C(=O)N2CCC[C@H]2C(=O)N[C@@H](CO)C(=O)N[C@@H](CCO)C(=O)N2C[C@H](O)C[C@H]2C(=O)N[C@@H](Cc2c[nH]c3ccccc23)C(=O)N[C@@H](CCO)C(=O)N[C@@H](Cc2c[nH]c3ccccc23)C(=O)N(C)[C@@H](C)C(=O)N(C)[C@@H](C)C(=O)N[C@@H](CCC(=O)O)C(=O)NC(C(=O)NCC(N)=O)CSCC(=O)N[C@@H](Cc2ccc(O)cc2)C(=O)N1C` (some centres unmarked) [Example 10218] ({CH2CO}-Y[NMeNle]NPS[hSer][Hyp]W[hSer]W[NMeA][NMeA]E[ξC]G-NH2; thioether N-14), the pIC50 was 5.00 to 6.00.

`CCCC[C@H]1C(=O)N(C)[C@@H](CCCC)C(=O)N[C@@H](CCN)C(=O)N[C@H](C(=O)NCC(N)=O)CSCC(=O)N[C@@H](Cc2ccc(O)cc2)C(=O)N(C)[C@@H](C)C(=O)N[C@@H](CC(N)=O)C(=O)N2CCC[C@H]2C(=O)N[C@@H](Cc2cnc[nH]2)C(=O)N[C@@H](CCC(N)=O)C(=O)N2C[C@H](O)C[C@H]2C(=O)N[C@@H](Cc2c[nH]c3ccccc23)C(=O)N[C@@H](CCN)C(=O)N[C@@H](Cc2cn(CC(=O)O)c3ccccc23)C(=O)N1C` [Example 6293] ({CH2CO}-Y[NMeA]NPHQ[Hyp]W[Dab][Trp(1-CH2COOH)][NMeNle][NMeNle][Dab]CG-NH2; thioether N-14): the pIC50 is 8.00 to 9.00. In the case of `CCCC[C@H]1C(=O)N2CCC[C@@H]2C(=O)N[C@@H](CC(=O)O)C(=O)N[C@@H](C(C)C)C(=O)N(C)[C@@H](Cc2ccccc2)C(=O)N[C@@H](CCCN)C(=O)N2CCC[C@@H]2C(=O)N[C@@H](Cc2c[nH]c3ccccc23)C(=O)N[C@@H](Cc2ccc(O)cc2)C(=O)N[C@@H](CC(C)C)C(=O)N[C@H](C(=O)NCC(N)=O)CSCC(=O)N[C@@H](Cc2ccc(F)cc2)C(=O)N(C)[C@@H](Cc2ccccc2)C(=O)N1C` [Example 10102] ({CH2CO}-[Phe(4-F)][NMeF][NMeNle][dP]DV[NMeF][Orn][dP]WYLCG-NH2; thioether N-13), the pIC50 was 8.00 to 9.00. With `COCC[C@H]1C(=O)N2C[C@@H](O)C[C@@H]2C(=O)N[C@@H](CC(=O)O)C(=O)N[C@@H](C(C)C)C(=O)N(C)[C@@H](Cc2ccccc2)C(=O)N[C@@H](Cc2ccc(O)cc2)C(=O)N2CCOC[C@@H]2C(=O)N[C@@H](Cc2c[nH]c3ccccc23)C(=O)N[C@@H](Cc2ccc(O)cc2)C(=O)N[C@@H](CC(C)C)C(=O)N[C@H](C(=O)NCC(N)=O)CSCC(=O)N[C@@H](Cc2cc(F)c(F)c(F)c2)C(=O)N(C)[C@@H](Cc2ccccc2)C(=O)N1C` [Example 9264] ({CH2CO}-[Phe(3,4,5-F3)][NMeF][NMehSer](Me)[dHyp]DV[NMeF]Y[X1]WYLCG-NH2; thioether N-13), the pIC50 was 8.00 to 9.00. On the same count and under the same terms, under `CCCC[C@H]1C(=O)N(C)[C@@H](CCCC)C(=O)N[C@@H](CCC(=O)O)C(=O)N[C@H](C(=O)NCC(N)=O)CSCC(=O)N[C@@H](Cc2ccc(O)cc2)C(=O)N(C)[C@@H](C)C(=O)N[C@@H](CC(N)=O)C(=O)N2CCC[C@H]2C(=O)N[C@@H](CO)C(=O)N[C@@H](CC(C)C)C(=O)N2C[C@H](O)C[C@H]2C(=O)N[C@@H](Cc2c[nH]c3ccccc23)C(=O)N[C@@H](CCN)C(=O)N[C@@H](Cc2cn(CC(=O)O)c3ccccc23)C(=O)N1C` [Example 6136] ({CH2CO}-Y[NMeA]NPSL[Hyp]W[Dab][Trp(1-CH2COOH)][NMeNle][NMeNle]ECG-NH2; thioether N-14) stands 7.00 to 8.00; under `CCCC[C@H]1C(=O)N(C)[C@@H](CCCC)C(=O)N[C@@H](CC(C)C)C(=O)N[C@H](C(=O)NCC(N)=O)CSCC(=O)N[C@@H](Cc2ccc(O)cc2)C(=O)N(C)[C@@H](C)C(=O)N[C@@H](CC(N)=O)C(=O)N2CCC[C@H]2C(=O)N[C@@H](Cc2cnc[nH]2)C(=O)N[C@@H](CCCCN)C(=O)N2C[C@H](O)C[C@H]2C(=O)N[C@@H](Cc2c[nH]c3ccccc23)C(=O)N[C@@H](CCCCN)C(=O)N[C@@H](Cc2cn(CC(=O)O)c3ccccc23)C(=O)N1C` [Example 6204] ({CH2CO}-Y[NMeA]NPHK[Hyp]WK[Trp(1-CH2COOH)][NMeNle][NMeNle]LCG-NH2; thioether N-14), 8.00 to 9.00.

On to `CCCC[C@H]1C(=O)N(C)[C@@H](CCCC)C(=O)N[C@@H](CCCN)C(=O)N[C@H](C(=O)NCC(N)=O)CSCC(=O)N[C@@H](Cc2ccc(OC)cc2)C(=O)N(C)[C@@H](C)C(=O)N[C@@H](CCN)C(=O)N2CCC[C@H]2C(=O)N[C@@H](Cc2cnc[nH]2)C(=O)N[C@@H](CCCCN)C(=O)N2C[C@H](O)C[C@H]2C(=O)N[C@@H](Cc2c[nH]c3ccccc23)C(=O)N[C@@H](CCN)C(=O)N[C@@H](Cc2c[nH]c3ccccc23)C(=O)N1C` [Example 7095] ({CH2CO}-Y(Me)[NMeA][Dab]PHK[Hyp]W[Dab]W[NMeNle][NMeNle][Orn]CG-NH2; thioether N-14), for which the pIC50 was 8.00 to 9.00. Regarding `CCCC[C@H]1C(=O)N(C)[C@@H](CCCC)C(=O)N[C@@H](CCC(=O)O)C(=O)N[C@H](C(=O)NCC(N)=O)CSCC(=O)N[C@@H](Cc2ccc(O)cc2)C(=O)N(C)[C@@H](C)C(=O)N[C@@H](CC(N)=O)C(=O)N2CCC[C@H]2C(=O)N[C@@H](CN)C(=O)N[C@@H](CCC(N)=O)C(=O)N2C[C@H](O)C[C@H]2C(=O)N[C@@H](Cc2c[nH]c3ccccc23)C(=O)N[C@@H](CO)C(=O)N[C@@H](Cc2c[nH]c3ccccc23)C(=O)N1C` [Example 5208] ({CH2CO}-Y[NMeA]NP[Dap]Q[Hyp]WSW[NMeNle][NMeNle]ECG-NH2; thioether N-14), the pIC50 is 8.00 to 9.00. The same measure, in the same setting: under `CCCC[C@H]1C(=O)N[C@@H](CC(C)C)C(=O)N[C@H](C(=O)NCC(N)=O)CSCC(=O)N[C@@H](Cc2ccc(O)cc2)C(=O)N(C)[C@@H](C)C(=O)N[C@@H](CC(N)=O)C(=O)N2CCCC2C(=O)N[C@@H](CN)C(=O)N[C@@H](CC(C)C)C(=O)N2C[C@H](O)C[C@H]2C(=O)N[C@@H](Cc2c[nH]c3ccccc23)C(=O)N[C@@H](CCN)C(=O)N(C)[C@@H](Cc2c[nH]c3ccccc23)C(=O)N(C)[C@@H](CCCC)C(=O)N1C` (some centres unmarked) [Example 5265] ({CH2CO}-Y[NMeA]N[ξP][Dap]L[Hyp]W[Dab][NMeW][NMeNle][NMeNle]LCG-NH2; thioether N-14) stands 7.00 to 8.00; under `CCCC[C@H]1C(=O)N2C[C@H](O)C[C@@H]2C(=O)N[C@@H](CC(=O)O)C(=O)N[C@@H](C(C)C)C(=O)N(C)[C@H](Cc2ccccc2)C(=O)N[C@@H](CC(=O)O)C(=O)N2C[C@H](O)C[C@@H]2C(=O)N[C@@H](Cc2c[nH]c3ccccc23)C(=O)N[C@@H](Cc2ccc(O)cc2)C(=O)N[C@@H](CCCN)C(=O)N[C@H](C(=O)NCC(N)=O)CSCC(=O)N[C@@H](Cc2ccc(F)c(F)c2)C(=O)N(C)[C@@H](Cc2ccccc2)C(=O)N1C` [Example 9301] ({CH2CO}-[Phe(3,4-F2)][NMeF][NMeNle][d(cisHyp)]DV[dNMeF]D[d(cisHyp)]WY[Orn]CG-NH2; thioether N-13), 8.00 to 9.00.

Staying with this assay, now noted: PD-L1-His 10 nM, PD-1-Ig 20 nM; read-out: HTRF Human PD-L1/PD-1 Binding Assay IC50.
Turning to `CC(C)[C@@H]1NC(=O)[C@H](CCC(N)=O)NC(=O)[C@@H](C)N(C)C(=O)[C@H](C)N(C)C(=O)[C@H](Cc2ccccc2)N(C)C(=O)[C@H](Cc2cc(F)c(F)c(F)c2)NC(=O)CSC[C@@H](C(=O)NCC(N)=O)NC(=O)[C@H](CCCN)NC(=O)[C@H](Cc2ccc(O)cc2)NC(=O)[C@H](Cc2c[nH]c3ccccc23)NC(=O)[C@@H](C)N(C)C(=O)[C@H](Cc2ccc(O)cc2)NC(=O)[C@H](Cc2ccccc2)N(C)C1=O` [Example 9196] ({CH2CO}-[Phe(3,4,5-F3)][NMeF][NMeA][dNMeA]QV[NMeF]Y[dNMeA]WY[Orn]CG-NH2; thioether N-13), the pIC50 is 8.35.
